Assay results from patent US20170190671A1, “BIS(ARYL)CATECHOL DERIVATIVES AS HERBICIDES” (E I DU PONT DE NEMOURS AND COMPANY, priority 2014, published 2017).

How the values were obtained:
Format in all cases: in vivo
Conditions in all cases: scale 0 to 100
[1] = system: wild poinsettia (Euphorbia heterophylla); test: Test E preemergence
Procedure, shortened: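 Test chemicals, formulated in a non-phytotoxic solvent with surfactant, are applied to silt loam soil after sowing or sprayed over young plants (1–4 leaves) in potting medium. Plants are then kept in a greenhouse for 14 to 21 days and scored 0–100 for control.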

[2] = system: hairy beggarticks (Bidens pilosa); test: Test E postemergence
From the text: (§1) Seeds of plant species selected from corn (Zea mays), soybean (Glycine max), velvetleaf (Abutilon theophrasti), cocklebur (common cocklebur, Xanthium strumarium), lambsquarters (Chenopodium album), wild poinsettia (Euphorbia heterophylla), palmer pigweed (Amaranthus palmeri), waterhemp (common waterhemp, Amaranthus rudis), surinam grass (Brachiaria decumbens), large (Lg) crabgrass (Digitaria sanguinalis), Brazilian crabgrass (Digitaria horizontalis), fall panicum (Panicum dichotomiflorum), giant foxtail (Setaria faberii), green foxtail (Setaria viridis), goosegrass (Eleusine indica), johnsongrass (Sorghum halepense), ragweed (common ragweed, Ambrosia elatior), barnyardgrass (Echinochloa crus-galli), sandbur (southern sandbur, Cenchrus echinatus), arrowleaf sida (Sida rhombifolia), Italian ryegrass (Lolium multiflorum), dayflower (Virginia (VA) dayflower, Commelina virginica), field bindweed (Convolvulus arvensis), morningglory (Ipomoea coccinea), nightshade (eastern black nightshade, Solanum ptycanthum), kochia (Kochia scoparia), yellow nutsedge (Cyperus esculentus), horseweed (Conyza canadensis), and hairy beggarticks (Bidens pilosa), were planted into a silt loam soil and treated preemergence with test chemicals formulated in a non-phytotoxic solvent mixture which included a surfactant.
(§2) At the same time, plants from these crop and weed species and also waterhemp_RES1, (ALS & Triazine resistant common waterhemp, Amaranthus rudis), and waterhemp_RES2, (ALS & HPPD resistant common waterhemp, Amaranthus rudis) were planted in pots containing Redi-Earth® planting medium (Scotts Company, 14111 Scottslawn Road, Marysville, Ohio 43041) comprising spaghnum peat moss, vermiculite, wetting agent and starter nutrients were treated with postemergence applications of test chemicals formulated in the same manner. Plants ranged in height from 2 to 18 cm for postemergence treatments (1- to 4-leaf stage). Treated plants and controls were maintained in a greenhouse for 14 to 21 days, after which time all species were compared to controls and visually evaluated. Plant response ratings, summarized in Table E, are based on a scale of 0 to 100 where 0 is no effect and 100 is complete control. A dash (-) response means no test result.

[3] = system: waterhemp (common waterhemp, Amaranthus rudis); test: Test E postemergence
From the text: as §1, §2

[4] = system: barnyardgrass (Echinochloa crus-galli); test: Test E postemergence
From the text: as §1, §2

[5] = system: dayflower (Virginia (VA) dayflower, Commelina virginica); test: Test E postemergence
From the text: as §1, §2

[6] = system: waterhemp_RES2 (ALS & HPPD resistant common waterhemp, Amaranthus rudis); test: Test E postemergence
From the text: as §1, §2

[7] = system: waterhemp_RES1 (ALS & Triazine resistant common waterhemp, Amaranthus rudis); test: Test E postemergence
From the text: as §1, §2

corn (Zea mays) = test: Test E postemergence
From the text: as §1, §2

[8] = system: field bindweed (Convolvulus arvensis); test: Test E postemergence
From the text: as §1, §2

[9] = system: arrowleaf sida (Sida rhombifolia); test: Test E postemergence
From the text: as §1, §2

soybean (Glycine max) = test: Test E postemergence
From the text: as §1, §2

[10] = system: horseweed (Conyza canadensis); test: Test E postemergence
From the text: as §1, §2

[11] = system: wild poinsettia (Euphorbia heterophylla); test: Test E postemergence
From the text: as §1, §2

[12] = system: Brazilian crabgrass (Digitaria horizontalis); test: Test E postemergence
From the text: as §1, §2

[13] = system: fall panicum (Panicum dichotomiflorum); test: Test E postemergence
From the text: as §1, §2

[14] = system: ragweed (common ragweed, Ambrosia elatior); test: Test E postemergence
From the text: as §1, §2

[15] = system: Italian ryegrass (Lolium multiflorum); test: Test E postemergence
From the text: as §1, §2

kochia (Kochia scoparia) = test: Test E postemergence
From the text: as §1, §2

[16] = system: palmer pigweed (Amaranthus palmeri); test: Test E postemergence
From the text: as §1, §2

[17] = system: sandbur (southern sandbur, Cenchrus echinatus); test: Test E postemergence
From the text: as §1, §2

## Fc1cccc(Oc2ncc(Cl)cn2)c1Oc1ncc(Cl)cn1 [Compound 21, 2,2′-[[3-fluoro-1,2-phenylene]bis(oxy)]bis[5-chloropyrimidine]]
[1]; 16 g ai/ha
  Plant response rating, Poinsettia, Wild: 0
[1]; 31 g ai/ha
  Plant response rating, Poinsettia, Wild: 10
[1]; 62 g ai/ha
  Plant response rating, Poinsettia, Wild: 50
[1]; 125 g ai/ha
  Plant response rating, Poinsettia, Wild: 60

## Clc1cnc(Oc2cccc(Br)c2Oc2ncc(Cl)cn2)nc1 [Compound 19, 2,2′-[[3-bromo-1,2-phenylene]bis(oxy)]bis[5-chloropyrimidine]]
[1]; 16 g ai/ha
  Plant response rating, Poinsettia, Wild: 0
[1]; 31 g ai/ha
  Plant response rating, Poinsettia, Wild: 0
[1]; 62 g ai/ha
  Plant response rating, Poinsettia, Wild: 15
[1]; 125 g ai/ha
  Plant response rating, Poinsettia, Wild: 70

## Fc1cccc(Oc2ncc(Cl)cn2)c1Oc1ncc(C(F)(F)F)cn1 [Compound 43, 5-chloro-2-[5-fluoro-6-[[5-(trifluoromethyl)-2-pyrimidinyl]oxy]phenoxy]pyrimidine]
[2]; 31 g ai/ha
  Plant response rating, Beggarticks: 50
[2]; 125 g ai/ha
  Plant response rating, Beggarticks: 60
[3]; 31 g ai/ha
  Plant response rating, Waterhemp: 65
[3]; 125 g ai/ha
  Plant response rating, Waterhemp: 95
[4]; 31 g ai/ha
  Plant response rating, Barnyardgrass: 0
[4]; 125 g ai/ha
  Plant response rating, Barnyardgrass: 15
[5]; 31 g ai/ha
  Plant response rating, Dayflower, VA: 50
[5]; 125 g ai/ha
  Plant response rating, Dayflower, VA: 70
[6]; 31 g ai/ha
  Plant response rating, Waterhemp_RES2: 65
[6]; 125 g ai/ha
  Plant response rating, Waterhemp_RES2: 80
[7]; 31 g ai/ha
  Plant response rating, Waterhemp_RES1: 65
[7]; 125 g ai/ha
  Plant response rating, Waterhemp_RES1: 80
Corn (Zea mays); 31 g ai/ha
  Plant response rating, Corn: 5
Corn (Zea mays); 125 g ai/ha
  Plant response rating, Corn: 15
[8]; 31 g ai/ha
  Plant response rating, Field Bindweed: 55
[8]; 125 g ai/ha
  Plant response rating, Field Bindweed: 70
[9]; 31 g ai/ha
  Plant response rating, Arrowleaf Sida: 80
[9]; 125 g ai/ha
  Plant response rating, Arrowleaf Sida: 95
Soybean (Glycine max); 31 g ai/ha
  Plant response rating, Soybean: 70
Soybean (Glycine max); 125 g ai/ha
  Plant response rating, Soybean: 95
[10]; 31 g ai/ha
  Plant response rating, Horseweed: 0
[10]; 125 g ai/ha
  Plant response rating, Horseweed: 10
[11]; 31 g ai/ha
  Plant response rating, Poinsettia, Wild: 60
[11]; 125 g ai/ha
  Plant response rating, Poinsettia, Wild: 75
[12]; 31 g ai/ha
  Plant response rating, Crabgrass, Brazil: 25
[12]; 125 g ai/ha
  Plant response rating, Crabgrass, Brazil: 40
[13]; 31 g ai/ha
  Plant response rating, Panicum, Fall: 40
[13]; 125 g ai/ha
  Plant response rating, Panicum, Fall: 50
[14]; 31 g ai/ha
  Plant response rating, Ragweed: 50
[14]; 125 g ai/ha
  Plant response rating, Ragweed: 60
[15]; 31 g ai/ha
  Plant response rating, Ryegrass, Italian: 0
[15]; 125 g ai/ha
  Plant response rating, Ryegrass, Italian: 20
Kochia (Kochia scoparia); 31 g ai/ha
  Plant response rating, Kochia: 75
Kochia (Kochia scoparia); 125 g ai/ha
  Plant response rating, Kochia: 95
[16]; 31 g ai/ha
  Plant response rating, Pigweed, Palmer: 80
[16]; 125 g ai/ha
  Plant response rating, Pigweed, Palmer: 90
[17]; 31 g ai/ha
  Plant response rating, Sandbur: 0
[17]; 125 g ai/ha
  Plant response rating, Sandbur: 10
[1]; 31 g ai/ha
  Plant response rating, Poinsettia, Wild: 65
[1]; 125 g ai/ha
  Plant response rating, Poinsettia, Wild: 100

## N#Cc1cccc(Oc2ncc(Cl)cn2)c1Oc1ccc(Cl)cc1 [Compound 36]
[2]; 16 g ai/ha
  Plant response rating, Beggarticks: 30
[2]; 31 g ai/ha
  Plant response rating, Beggarticks: 35
[2]; 62 g ai/ha
  Plant response rating, Beggarticks: 30
[2]; 125 g ai/ha
  Plant response rating, Beggarticks: 40
[3]; 16 g ai/ha
  Plant response rating, Waterhemp: 95
[3]; 31 g ai/ha
  Plant response rating, Waterhemp: 90
[3]; 62 g ai/ha
  Plant response rating, Waterhemp: 95
[3]; 125 g ai/ha
  Plant response rating, Waterhemp: 95
[4]; 16 g ai/ha
  Plant response rating, Barnyardgrass: 20
[4]; 31 g ai/ha
  Plant response rating, Barnyardgrass: 25
[4]; 62 g ai/ha
  Plant response rating, Barnyardgrass: 30
[4]; 125 g ai/ha
  Plant response rating, Barnyardgrass: 50
[5]; 16 g ai/ha
  Plant response rating, Dayflower, VA: 20
[5]; 31 g ai/ha
  Plant response rating, Dayflower, VA: 50
[5]; 62 g ai/ha
  Plant response rating, Dayflower, VA: 60
[5]; 125 g ai/ha
  Plant response rating, Dayflower, VA: 70
[6]; 16 g ai/ha
  Plant response rating, Waterhemp_RES2: 60
[6]; 31 g ai/ha
  Plant response rating, Waterhemp_RES2: 90
[6]; 62 g ai/ha
  Plant response rating, Waterhemp_RES2: 80
[6]; 125 g ai/ha
  Plant response rating, Waterhemp_RES2: 90
[7]; 16 g ai/ha
  Plant response rating, Waterhemp_RES1: 98
[7]; 31 g ai/ha
  Plant response rating, Waterhemp_RES1: 95
[7]; 62 g ai/ha
  Plant response rating, Waterhemp_RES1: 95
[7]; 125 g ai/ha
  Plant response rating, Waterhemp_RES1: 100
Corn (Zea mays); 16 g ai/ha
  Plant response rating, Corn: 10
Corn (Zea mays); 31 g ai/ha
  Plant response rating, Corn: 20
Corn (Zea mays); 62 g ai/ha
  Plant response rating, Corn: 20
Corn (Zea mays); 125 g ai/ha
  Plant response rating, Corn: 25
[8]; 16 g ai/ha
  Plant response rating, Field Bindweed: 40
[8]; 31 g ai/ha
  Plant response rating, Field Bindweed: 50
[8]; 62 g ai/ha
  Plant response rating, Field Bindweed: 65
[8]; 125 g ai/ha
  Plant response rating, Field Bindweed: 85
[9]; 16 g ai/ha
  Plant response rating, Arrowleaf Sida: 70
[9]; 31 g ai/ha
  Plant response rating, Arrowleaf Sida: 70
[9]; 62 g ai/ha
  Plant response rating, Arrowleaf Sida: 80
[9]; 125 g ai/ha
  Plant response rating, Arrowleaf Sida: 85
Soybean (Glycine max); 16 g ai/ha
  Plant response rating, Soybean: 60
Soybean (Glycine max); 31 g ai/ha
  Plant response rating, Soybean: 50
Soybean (Glycine max); 62 g ai/ha
  Plant response rating, Soybean: 70
Soybean (Glycine max); 125 g ai/ha
  Plant response rating, Soybean: 50
[10]; 16 g ai/ha
  Plant response rating, Horseweed: 0
[10]; 31 g ai/ha
  Plant response rating, Horseweed: 0
[10]; 62 g ai/ha
  Plant response rating, Horseweed: 5
[10]; 125 g ai/ha
  Plant response rating, Horseweed: 10
[11]; 16 g ai/ha
  Plant response rating, Poinsettia, Wild: 50
[11]; 31 g ai/ha
  Plant response rating, Poinsettia, Wild: 60
[11]; 62 g ai/ha
  Plant response rating, Poinsettia, Wild: 70
[11]; 125 g ai/ha
  Plant response rating, Poinsettia, Wild: 90
[12]; 16 g ai/ha
  Plant response rating, Crabgrass, Brazil: 20
[12]; 31 g ai/ha
  Plant response rating, Crabgrass, Brazil: 20
[12]; 62 g ai/ha
  Plant response rating, Crabgrass, Brazil: 30
[12]; 125 g ai/ha
  Plant response rating, Crabgrass, Brazil: 30
[13]; 16 g ai/ha
  Plant response rating, Panicum, Fall: 20
[13]; 31 g ai/ha
  Plant response rating, Panicum, Fall: 25
[13]; 62 g ai/ha
  Plant response rating, Panicum, Fall: 15
[13]; 125 g ai/ha
  Plant response rating, Panicum, Fall: 25
[14]; 16 g ai/ha
  Plant response rating, Ragweed: 15
[14]; 31 g ai/ha
  Plant response rating, Ragweed: 25
[14]; 62 g ai/ha
  Plant response rating, Ragweed: 35
[14]; 125 g ai/ha
  Plant response rating, Ragweed: 50
[15]; 16 g ai/ha
  Plant response rating, Ryegrass, Italian: 10
[15]; 31 g ai/ha
  Plant response rating, Ryegrass, Italian: 15
[15]; 62 g ai/ha
  Plant response rating, Ryegrass, Italian: 10
[15]; 125 g ai/ha
  Plant response rating, Ryegrass, Italian: 30
Kochia (Kochia scoparia); 16 g ai/ha
  Plant response rating, Kochia: 90
Kochia (Kochia scoparia); 31 g ai/ha
  Plant response rating, Kochia: 95
Kochia (Kochia scoparia); 62 g ai/ha
  Plant response rating, Kochia: 100
Kochia (Kochia scoparia); 125 g ai/ha
  Plant response rating, Kochia: 95
[16]; 16 g ai/ha
  Plant response rating, Pigweed, Palmer: 75
[16]; 31 g ai/ha
  Plant response rating, Pigweed, Palmer: 85
[16]; 62 g ai/ha
  Plant response rating, Pigweed, Palmer: 85
[16]; 125 g ai/ha
  Plant response rating, Pigweed, Palmer: 85
[17]; 16 g ai/ha
  Plant response rating, Sandbur: 10
[17]; 31 g ai/ha
  Plant response rating, Sandbur: 20
[17]; 62 g ai/ha
  Plant response rating, Sandbur: 20
[17]; 125 g ai/ha
  Plant response rating, Sandbur: 25
